Experimental data: patent US9872833B2, “Liposome composite body” (National University Corporation Tottori University, priority 2011, dated 2018)

What was measured:
[1] = Fluorescence spectrum of liposome dispersions; type: physicochemical; conditions: liposome dispersion; excitation wavelength 736 nm
Description: (1) Fluorescence Spectrum
Dispersion of Liposome Including ICG (ICG
(§1) A chloroform/methanol (9:1, v/v) solution containing 10.0 mM of egg yolk-derived phosphatidylcholine and 3.2×10^−2 mM of ICG (Diagnogreen injection, Daiichi Sankyo) was prepared; 3 mL thereof was subjected to the distillation off of the solvent under reduced pressure; and 3 mL of a physiological saline was added to the formed thin membrane, which was then treated using a filter having a pore diameter of 0.22 μm to provide liposomes.
(§2) Dispersion of Liposome Having ICG-8 in Lipid Bilayer Membrane (LP-ICG-8)
as §1, with “ICG-8” for “ICG (Diagnogreen injection, Daiichi Sankyo)”
When the above liposome dispersions were measured for fluorescence spectra (Jasco FP-6600), fluorescence spectra as shown in FIG. 2 were obtained at an excitation wavelength of 736 nm. The maximum fluorescence wavelength for ICG was 852 nm, and the maximum fluorescence wavelength for ICG-8 was 854 nm.

[2] = Measurement of singlet oxygen; type: physicochemical; conditions: excitation wavelength 690 nm, 20 mW; singlet oxygen detected at 1,270 nm
Description: The measurement conditions are as follows.
Excitation was carried out with a dye laser using an excitation wavelength of 690 nm, an average output of 20 mW, a repetition frequency of 30 Hz, a pulse width of about […], and DCM.
For detection, light was dispersed by a spectroscope (focal distance: 250 mm, grating: 600 L/mm) using a gated near-infrared image intensifier (NIR-PII) cooled at −80° C., followed by measurement for 200 microseconds from 30 microseconds after excitation.
In FIG. 10, the red line indicates the generation of singlet oxygen (1,270 nm) derived from ICG-8, and the blue line indicates singlet oxygen scavenging by β-carotene (concentration: 4 μM).
(§3) The measurement conditions were as follows.
In FIG. 12, the red line indicates the generation of singlet oxygen (1,270 nm) derived from ICG-11, and the blue line indicates singlet oxygen scavenging by β-carotene (concentration: 6 μM).

[3] = system: cancer (glioma) under the skin using the brain tumor cells 9 L; assay: Near-infrared camera image after intravenous administration (tumor accumulation); type: in vivo, rat; conditions: 500 μL through the cervical vein; 5 minutes after administration; 9 L tumor-bearing rats
Description: (2) Near-Infrared Camera Image after Intravenous Administration
ICG Aqueous Solution (ICG)
ICG was dissolved to 3.2 mM in pure water and diluted by 100-fold with a physiological saline.
as §2
A chloroform/methanol (9:1, v/v) solution containing egg yolk-derived phosphatidylcholine (10.0 mM), cholesterol (1.0 mM), polyethylene glycol-modified phosphatidylethanolamine (PEG-PE) (5.0×10^−1 mM), and ICG-8 (3.2×10^−2 mM) was prepared; 5 mL thereof was evaporated under reduced pressure; 5 mL of a physiological saline was added to the formed thin membrane, which was then treated using a filter having a pore diameter of 0.22 μm; and the resultant was further treated using a filter having a pore diameter of 0.05 μm to provide liposomes.
F344/Jc1 34-36 weeks 9 L rats were used for the test. […] After cutting the hair over the tumor location, 500 μL of the ICG aqueous solution or LP-ICG-8 was administered through the cervical vein. Fluorescent observation (Hyper Eye Medical System from Mizuho Corporation, excitation wavelength: 760 to 780 nm, fluorescence wavelength: >780 nm) was carried out 5 minutes after administration (FIG. 3). The distance between each rat and the camera head was 50 cm.

[4] = Fluorescence spectral characteristic of ICG-11 in polar and non-polar solvent; type: physicochemical; conditions: 1 μM; for fluorescence emission: in chloroform as non-polar solvent
Description: (1) Fluorescence Spectral Characteristic of ICG-11
The physical properties of ICG-11 were examined in aqueous solutions different in polarity in comparison with ICG.
(a) Comparison in Methanol as Polar Solvent
(b) Comparison in Chloroform as Non-Polar Solvent
In FIG. 11, the black and red lines indicate the results for ICG-11 (concentration: 1 μM) and ICG (concentration: 1 μM), respectively.

[5] = Loading amount in liposome (gel filtration); type: physicochemical; conditions: liposomes formed at ICG:DOPC of 1:40 or 1:20
Description: The amount of ICG-11 loadable in the liposome was examined by changing the mixing ratio between ICG-11 and dioleoylphosphatidylcholine (DOPC) as the main component of the lipid bilayer membrane. For comparison, the amount of loadable ICG was examined.
In chloroform/methanol (9:1, v/v) solution were dissolved DOPC (10 mM), cholesterol (5 mM), polyethylene glycol-modified phosphatidylethanolamine (PEG-PE, 0.5 mM), and ICG-11 (0 to 5 mM) or ICG (0 to 0.5 mM); a portion of the resultant solution was dried under reduced pressure; and a physiological saline was added to the formed thin membrane, which was then treated using a filter having a pore diameter of 100 nm to provide a liposome dispersion.
The amount of incorporation of ICG-11 into the lipid bilayer membrane when it formed a liposome was measured using the following conditions.
Liposomes into which ICG-11 or ICG was incorporated and ICG-11 or ICG released into a liposome dispersion without being incorporated into the lipid bilayer membrane were separated and determined using a gel filtration column (PD-10 from GE) (FIG. 14).

[6] = Heat generating capacity of ICG-11; type: physicochemical; conditions: excitation 808 nm, 0.5 W/m^2; ICG-11 0 to 4 μM
Description: (3) Heat Generating Capacity of ICG-11
The heat generating capacity of […] was measured using the following conditions.
as §3
Excitation was carried out at an excitation wavelength of 808 nm and an output of 0.5 W/m^2. The temperature was measured at 1-second intervals.
In FIG. 13, the black, red, blue, and green lines indicate the results when the concentration of ICG-11 was 0 μM, 1 μM, 2 μM, and 4 μM, respectively.

In the case of “4-(2-((1E,3E,5E,7E)-7-(1,1-dimethyl-3-octadecyl-1H-benzo[e]indol-2(3H)-ylidene)hepta-1,3,5-trienyl)-1,1-dimethyl-1H-benzo[e]indolium-3-yl)butane-1-sulfonic acid [ICG-8]”, the maximum fluorescence wavelength [1] is reported as 854 nm and the singlet oxygen-producing capacity [2] is reported as “had a singlet oxygen-producing capacity”.

For CC1(C)C(/C=C/C=C/C=C/C=C2\N(CCCCS(=O)(=O)O)c3ccc4ccccc4c3C2(C)C)=[N+](CCCCS(=O)(=O)[O-])c2ccc3ccccc3c21 [ICG, indocyanine green, reference compound], the maximum fluorescence wavelength [1] was 852 nm, the “accumulation in the tumor tissue (fluorescent observation)” value [3] was “did not result in the accumulation of ICG in the tumor tissue” and the fluorescence emission [4] was “not emitting fluorescence”. The “dye not incorporated into the lipid bilayer membrane” value [5] was “ICG not incorporated into the lipid bilayer membrane increased in the dispersion”.

In the case of CCCCCCCC/C=C\CCCCCCCC(=O)OC[C@H](COP(=O)(O)OCCNC(=O)CCN1/C(=C/C=C/C=C/C=C/C2=[N+](CCCCS(=O)(=O)O)c3ccc4ccccc4c3C2(C)C)C(C)(C)c2c1ccc1ccccc21)OC(=O)CCCCCCC/C=C\CCCCCCCC [ICG-11, 4-(2-((1E,3E,5E,7E)-7-(3-(2-(1,2-dioleoyl-sn-glycero-3-phosphoethanolaminocarbonyl)ethyl)-1,1-dimethyl-1H-benzo[e]indol-2(3H)-ylidene)hepta-1,3,5-trienyl)-1,1-dimethyl-1H-benzo[e]indolium-3-yl)butane-1-sulfonic acid], the singlet oxygen-producing capacity [2] is reported as “had a singlet oxygen-producing capacity”, the fluorescence emission [4] is reported as “sufficiently strong fluorescence” and the “fluorescence compared to ICG” value ([4]; in methanol as polar solvent) is reported as 1.5 fold. For the same compound, the heat generating capacity [6] was “had a heat-generating capacity (increasing the tissue temperature from 37 °C to 43° C.)”.
